Measured values published in patent US9227977B2, “Phosphoinositide 3-kinase inhibitors” (RESPIVERT LTD., priority 2013, dated 2016).
pEC50: −log10 of the molar value.

How the values were obtained:
PI3K γ = PI3K γ (Homo sapiens (Human), UniProt P48736); assay: PI3K γ cell based assay: MCP-1-induced Akt phosphorylation in d-U937 cells; conditions: inhibition of induced Akt phosphorylation, MCP-1 stimulus; read-out: REC50 values in d-U937 cells, MCP-1 stimulus
Description: As a means of assessing the activation of PI3K γ in response to stimuli, the phosphorylation status of the protein, Akt, a downstream product of PI3K γ signalling, was determined following stimulation with MCP-1.
U937 cells were differentiated to macrophage-type cells by incubation with PMA (100 ng/mL) for 48 to 72 hr. Cells were then pre-incubated with either the test compound or vehicle for 2 hr and were then stimulated briefly with MCP-1 (10 nM, 1 min) and the reaction stopped by replacing the media with 4% formaldehyde solution. […] After washing with buffer (PBS containing 0.1% Triton X-100), cells were incubated with an HRP-conjugated secondary antibody (Dako) and the resultant signal was determined colorimetrically (OD: 450 nm with a reference wavelength of 655 nm) using TMB substrate (substrate reagent pack supplied by R&D Systems, Inc.).
This reaction was stopped by addition of 1N H2SO4 solution (100 μL). […] After washing with buffer (PBS containing 0.1% Triton X-100) 1% SDS (100 μL) was added to each well and the plates were shaken lightly for 1 hr prior to measuring the absorbance at 595 nm (Varioskan® Flash, Thermo-Fisher Scientific). The measured OD450-655 readings were corrected for cell number by dividing the OD450-655 by the OD595 readings. The ratio of pAkt signal to total Akt signal was used to quantitate the extent of PI3K γ activation. […]

[1] = system: ovalbumin-induced airway eosinophilia and neutrophilia in mice; assay: Ovalbumin-induced airway eosinophil and neutrophil accumulation in mice; assay type: in vivo, mouse; conditions: OVA-sensitized mice, i-t; for Cell numbers in BALF, Eosinophils / Cell numbers in BALF, Neutrophils: mean ± SEM
Description: BALB/c mice (6-8 weeks old) were immunized with OVA (10 μg/mouse i.p.) on days 0 and 7. In order to elicit a local inflammatory response in the lung, mice were repeatedly challenged between days 13-15 with a nebulised solution of ovalbumin (10 mg/mL, 30 min exposure, De Vilibiss Ultraneb 2000). On day 17 each animal received via intra-tracheal administration of either vehicle or test compound 2 hr prior to the final OVA challenge. Animals were anaesthetized 8 hr later before undergoing a tracheotomy. BAL was obtained by instilling PBS (1 mL) into the lungs, which was then withdrawn. This procedure was repeated to provide approximately 2 mL of lavage fluid. Total cell numbers in the BALF samples were measured using a haemocytometer. Cytospin smears of the BALF samples were prepared by centrifugation at 200 rpm for 5 min at RT and stained using a DiffQuik stain system (Dade Behring) for differential cell counts. Cells were counted using oil immersion microscopy. Data is expressed as differential number of cells per mL of […] (mean±S.E.M).

[2] = system: poly-I:C-induced cell accumulation in mice airways; assay: Poly-I:C-induced cell accumulation in mice; assay type: in vivo, mouse; conditions: for % inhibition, Macrophages in BALF / % inhibition, Neutrophils in BALF / Cell numbers in BALF, Macrophages / Cell numbers in BALF, Neutrophils: mice, poly I:C, intra-nasal; for Cell numbers in BALF, Macrophages / Cell numbers in BALF, Neutrophils: mean ± SEM
Description: Specific pathogen-free A/J mice (males, 5 weeks old) were dosed with poly (I:C)-LMW (1 mg/mL, 40 μL) (InvivoGen, San Diego, Calif., USA) intranasally twice daily for 3 days under anaesthasia (3% isoflurane). Test substances were dosed intra-nasally (50 μL in 10% DMSO/isotonic saline vehicle) 2 hr before each poly-I:C treatment. At 24 hr after the last poly-I:C challenge, animals were anesthetized, the trachea was cannulated and bronchial alveolar lavage (BAL) was obtained by instilling into and then withdrawing from the lungs, isotonic saline (100 mL/kg). Total cell numbers in the BALF samples were measured using a haemocytometer under a phase-contrast microscope.
The proportions of alveolar macrophages and neutrophils were determined by FACS analysis using anti-mouse MOMA2-FITC (macrophage) or anti-mouse 7/4-FITC (neutrophil). Cells were suspended in PBS and incubated with anti-MOMA2-FITC (2 μg/mL, Catalogue no SM065F, Acris Antibodies GmbH, Herford, Germany) or anti-7/4-FITC (2 μg/mL, Catalogue no CL050F, Acris Antibodies GmbH, Herford, Germany) for 30 min at 30° C., and then counterstained with propidium iodide (2 μg/mL) to allow exclusion of necrotic cells. The cells were washed with PBS, and transferred to FACS tubes. Samples was set in a flow cytometer (ALTRA II; Beckman Coulter Japan, Tokyo, Japan), and a single-parameter FL2 [PMT2] (FITC) histogram with log x-axis was plotted to illustrate relative intensity of FITC, Data files were stored for subsequent analysis using Kaluza analysis software (ver. 1.2) to calculate the proportion of each cell type.

PI3K γ, sequence (P48736 whole entry): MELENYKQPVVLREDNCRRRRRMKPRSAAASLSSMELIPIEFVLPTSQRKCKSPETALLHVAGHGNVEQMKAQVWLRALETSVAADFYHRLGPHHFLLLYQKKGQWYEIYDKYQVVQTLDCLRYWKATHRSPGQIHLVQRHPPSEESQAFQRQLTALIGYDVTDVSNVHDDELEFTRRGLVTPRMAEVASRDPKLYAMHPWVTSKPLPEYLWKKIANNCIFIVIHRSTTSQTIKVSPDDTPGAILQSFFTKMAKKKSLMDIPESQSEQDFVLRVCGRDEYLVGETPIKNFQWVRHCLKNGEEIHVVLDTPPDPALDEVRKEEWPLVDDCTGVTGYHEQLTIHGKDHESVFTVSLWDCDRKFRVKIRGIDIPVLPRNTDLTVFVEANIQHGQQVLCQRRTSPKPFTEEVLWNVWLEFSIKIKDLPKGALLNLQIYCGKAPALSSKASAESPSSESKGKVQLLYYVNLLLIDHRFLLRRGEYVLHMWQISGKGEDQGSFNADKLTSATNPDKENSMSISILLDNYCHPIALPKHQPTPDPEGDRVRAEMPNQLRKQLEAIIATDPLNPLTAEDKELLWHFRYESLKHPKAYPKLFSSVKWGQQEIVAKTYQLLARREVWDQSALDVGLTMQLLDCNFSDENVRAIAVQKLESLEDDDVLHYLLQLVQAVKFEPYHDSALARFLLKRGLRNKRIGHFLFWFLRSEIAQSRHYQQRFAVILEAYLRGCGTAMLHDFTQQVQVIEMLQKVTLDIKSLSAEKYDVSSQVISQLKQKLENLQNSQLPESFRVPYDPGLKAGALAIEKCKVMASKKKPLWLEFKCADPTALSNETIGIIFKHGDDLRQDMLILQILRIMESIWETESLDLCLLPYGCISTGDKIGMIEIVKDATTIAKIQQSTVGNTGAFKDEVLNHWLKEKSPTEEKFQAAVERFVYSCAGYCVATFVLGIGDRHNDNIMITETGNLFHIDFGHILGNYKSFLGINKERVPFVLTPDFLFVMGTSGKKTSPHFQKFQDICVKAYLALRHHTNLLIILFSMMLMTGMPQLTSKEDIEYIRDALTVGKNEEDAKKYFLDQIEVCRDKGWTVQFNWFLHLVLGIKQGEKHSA

COCCOCCOCC#Cc1cccc2nc(Cn3nc(-c4cc(O)cc(F)c4)c4c(N)ncnc43)n(Cc3ccccc3C(F)(F)F)c(=O)c12 [Compound (I), 2-((4-Amino-3-(3-fluoro-5-hydroxyphenyl)-1H-pyrazolo[3,4-d]pyrimidin-1-yl)methyl)-5-(3-(2-(2-methoxyethoxy)ethoxy)prop-1-yn-1-yl)-3-(2-(trifluoromethyl)benzyl)quinazolin-4(3H)-one]
pEC50 (PI3K γ): 7.78 | % inhibition, Eosinophils in BALF ([1]; 0.05 mg/mL): 20% | % inhibition, Neutrophils in BALF ([1]; 0.05 mg/mL): 18% | Cell numbers in BALF, Eosinophils ([1]; 0.05 mg/mL): 19.7 ± 3.2 x10^4/mL | Cell numbers in BALF, Neutrophils ([1]; 0.05 mg/mL): 8.0 ± 0.4 x10^4/mL | % inhibition, Eosinophils in BALF ([1]; 0.2 mg/mL): 85% | % inhibition, Neutrophils in BALF ([1]; 0.2 mg/mL): 70% | Cell numbers in BALF, Eosinophils ([1]; 0.2 mg/mL): 3.8 ± 0.9 x10^4/mL | Cell numbers in BALF, Neutrophils ([1]; 0.2 mg/mL): 2.9 ± 0.5 x10^4/mL | % inhibition, Eosinophils in BALF ([1]; 1 mg/mL): 91% | % inhibition, Neutrophils in BALF ([1]; 1 mg/mL): 80% | Cell numbers in BALF, Eosinophils ([1]; 1 mg/mL): 2.1 ± 0.4 x10^4/mL | Cell numbers in BALF, Neutrophils ([1]; 1 mg/mL): 2.0 ± 0.3 x10^4/mL | potency versus compound A on poly-I:C-induced cell accumulation (in words) ([2]; direct comparison): significantly greater potency than compound A | % inhibition, Macrophages in BALF ([2]; 0.002 mg/mL): 49% | % inhibition, Neutrophils in BALF ([2]; 0.002 mg/mL): 43% | Cell numbers in BALF, Macrophages ([2]; 0.002 mg/mL): 11.5 ± 0.2 x10^4/mL | Cell numbers in BALF, Neutrophils ([2]; 0.002 mg/mL): 7.3 ± 0.3 x10^4/mL | % inhibition, Macrophages in BALF ([2]; 0.02 mg/mL): 69% | % inhibition, Neutrophils in BALF ([2]; 0.02 mg/mL): 65% | Cell numbers in BALF, Macrophages ([2]; 0.02 mg/mL): 8.3 ± 0.3 x10^4/mL | Cell numbers in BALF, Neutrophils ([2]; 0.02 mg/mL): 5.0 ± 0.2 x10^4/mL | % inhibition, Macrophages in BALF ([2]; 0.2 mg/mL): 79% | % inhibition, Neutrophils in BALF ([2]; 0.2 mg/mL): 77% | Cell numbers in BALF, Macrophages ([2]; 0.2 mg/mL): 6.8 ± 0.3 x10^4/mL | Cell numbers in BALF, Neutrophils ([2]; 0.2 mg/mL): 3.8 ± 0.2 x10^4/mL
